Data published in the supplement of paper PMC10307832.

Assays:
Assay in all cases: relative viability (nuclei count vs DMSO), 5 days (fraction); higher = more cells survive
[1] = compound: CCOC1=CC=CC=C1N=NC2=C(NN(C2=O)C3=NC(=CS3)C4=CC=CC=C4)C [BAM7] + CC(=O)Nc1cccc(-n2c(=O)n(C3CC3)c(=O)c3c(Nc4ccc(I)cc4F)n(C)c(=O)c(C)c32)c1 [Trametinib] (partner 0.02 µM)
Outline: (§1)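 Relative viability was taken as the ratio of nuclei in treated wells to nuclei in vehicle wells. Lung cancer cell lines in 1536-well plates received compounds by pin tool one day after seeding, either one drug alone or a fixed anchor-drug dose plus five library-drug doses (not always all listed) in √10 steps. Nuclei were counted on 4× images after 5 days of treatment, and values are medians of duplicate plates.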

[2] = compound: CCOC1=CC=CC=C1N=NC2=C(NN(C2=O)C3=NC(=CS3)C4=CC=CC=C4)C [BAM7] + N=C(N)NC(=N)NCCc1ccccc1 [Phenformin] (partner 250 µM)
Outline: as §1

[3] = compound: CCOC1=CC=CC=C1N=NC2=C(NN(C2=O)C3=NC(=CS3)C4=CC=CC=C4)C [BAM7] + Nc1ncn([C@H]2C[C@H](O)[C@@H](CO)O2)c(=O)n1 [Decitabine] (partner 2 µM)
Outline: as §1

[4] = compound: CCn1c(-c2nonc2N)nc2c(C#CC(C)(C)O)ncc(OC[C@H]3CCCNC3)c21 + CC1(C)CCC(c2ccc(Cl)cc2)=C(CN2CCN(c3ccc(C(=O)NS(=O)(=O)c4ccc(N[C@H](CCN5CCOCC5)CSc5ccccc5)c(S(=O)(=O)C(F)(F)F)c4)cc3)CC2)C1 [Navitoclax] (partner 0.5 µM)
Outline: as §1

Cell Line	relative viability ([1]; first compound 0.5 µM)	relative viability ([1]; first compound 5 µM)	relative viability ([1]; first compound 15.81 µM)	relative viability ([1]; first compound 50 µM)	relative viability ([2]; first compound 0.5 µM)	relative viability ([2]; first compound 5 µM)	relative viability ([2]; first compound 15.81 µM)	relative viability ([2]; first compound 50 µM)	relative viability ([3]; first compound 0.5 µM)	relative viability ([3]; first compound 5 µM)	relative viability ([3]; first compound 15.81 µM)	relative viability ([3]; first compound 50 µM)	relative viability ([4]; first compound 0.01 µM)	relative viability ([4]; first compound 0.03162 µM)	relative viability ([4]; first compound 0.1 µM)	relative viability ([4]; first compound 0.3162 µM)	relative viability ([4]; first compound 1 µM)
NCI-H1355	0.399	0.386	0.317	0.457	0.462	0.421	0.425	0.458	0.357	0.357	0.319	0.37	1	0.819	1.02	0.882	0.969
HOP-62	0.37	0.416	0.376	0.352	0.668	0.867	0.664	0.714	0.191	0.256	0.226	0.255	0.997	0.942	1.04	0.951	1.05
NCI-H2085	0.587	0.521	0.471	0.52	0.691	0.619	0.625	0.711	0.558	0.549	0.47	0.604	1.12	1.09	1.1	1.08	1.07
